In brackets after ≈: the same amount, converted by molar mass.
Assays:
Assay in all cases: MIC by serial dilution in nutrient agar
Type in all cases: cell-based
[1] = tested on: Serratia marcescens US32; details: Serratia marcescens US 32, nutrient agar (Oxoid), 10^4 colony forming units, overnight at 37° C.
[2] = tested on: Serratia marcescens HCN 3956; details: HCN3956, nutrient agar (Oxoid), 10^4 colony forming units, overnight at 37° C.
[3] = tested on: Pseudomonas aeruginosa NCTC 10662; details: NCTC10662, nutrient agar (Oxoid), 10^4 colony forming units, overnight at 37° C.
[4] = tested on: Staphylococcus aureus Oxford; details: nutrient agar (Oxoid), 10^4 colony forming units, overnight at 37° C.
[5] = tested on: Enterobacter cloacae P99

Compound	MIC [1] [µg/mL]	MIC [2] [µg/mL]	MIC [3] [µg/mL]	MIC [4] [µg/mL]	MIC [5] [µg/mL]
CCN1CCN(C(=O)NC(C(=O)NC2(NC=O)C(=O)N3C(C(=O)[O-])=C(C[n+]4ccccc4)CSC32)c2ccc(OC(C)=O)c(OC(C)=O)c2)C(=O)C1=O [Compound A, 7β-[D-2-(3,4-diacetoxyphenyl)-2-[(4-ethyl-2,3-dioxopiperazin-1-yl)carbonylamino]acetamido]-7α-formamido-3-(pyridinium)methyl-ceph-3-em-4-carboxylate]	0.5 (≈ 0.665 µM)	16 (≈ 21.3 µM)	2 (≈ 2.66 µM)	16 (≈ 21.3 µM)	8 (≈ 10.6 µM)
CCN1CCN(C(=O)NC(C(=O)NC2(NC=O)C(=O)N3C(C(=O)[O-])=C(C[n+]4ccccc4)CSC32)c2ccc(O)c(O)c2)C(=O)C1=O [Example 1, 7β-[D-2-(3,4-Dihydroxyphenyl)-2-[(4-ethyl-2,3-dioxopiperazin-1-yl)carbonylamino]acetamido]-7α-formamido-3-(pyridinium)methyl-ceph-3-em-4-carboxylate]	0.12 (≈ 0.18 µM)	2 (≈ 3 µM)	0.5 (≈ 0.749 µM)	8 (≈ 12 µM)	2 (≈ 3 µM)
